Experimental data from US11285218B2, “Degradation of bromodomain-containing protein 9 (BRD9) by conjugation of BRD9 inhibitors with E3 ligase ligand and methods of use” (Dana-Farber Cancer Institute, Inc., priority 2016, dated 2022).

Legend:
BRD9 [1] = molecular target: T1, BRD9 (Homo sapiens, UniProt Q9H8M2); assay: BRD9-ligand displacement AlphaScreen; assay type: binding
T1 construct: A construct of human BRD9 covering residues 134-0245 in the pET28PP vector; made in house; host or cells: E. coli BL21 (DE3)
T1 sequence (Q9H8M2 134-245 limits assumed): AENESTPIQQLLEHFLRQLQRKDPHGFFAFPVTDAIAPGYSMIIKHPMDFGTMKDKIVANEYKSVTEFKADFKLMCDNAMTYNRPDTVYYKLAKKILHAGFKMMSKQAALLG
Protocol: BRD9 assays were performed with minimal modifications from the manufacturer's protocol (PerkinElmer, USA). All reagents were diluted in 50 mM HEPES, 150 mM NaCl, 0.1% w/v BSA, 0.01% w/v Tween20, pH 7.5. […] Plates were spun down at 150×g, and 100 nL of DMSO compound stock was added from pre-diluted plates by pin transfer using a Janus Workstation (PerkinElmer, USA). Under low light, a 2× suspension of Ni-coated Acceptor Beads and Streptavidin Donor Beads, was then added at 10 ul/well to a final concentration of 5 μg/ml by EL406 automated liquid handler (Biotek, USA).

MOLM-13 cell line = assay: ATPlite viability assay, MOLM-13; conditions: MOLM-13, 72 hours; in words
Protocol: 500 cells/well were plated at a volume of 40 μL/well in white tissue culture treated 384 well assay plates (Thermo Scientific) before DMSO compound stock was added from pre-diluted plates by pin transfer using a Janus Workstation (PerkinElmer, USA). […] Assay plates were allowed to equilibrate to RT for 30 min before reconstituted ATPlite 1 Step reagent (Perkin Elmer) was dispensed at 1:1 volume/well by EL406 automated liquid handler (Biotek, USA).

BRD9 [2] = molecular target: T2, BRD9 (Homo sapiens, UniProt Q9H8M2); assay: BRD9 immunoblot in MM1S cells
T2 sequence (Q9H8M2 1-597): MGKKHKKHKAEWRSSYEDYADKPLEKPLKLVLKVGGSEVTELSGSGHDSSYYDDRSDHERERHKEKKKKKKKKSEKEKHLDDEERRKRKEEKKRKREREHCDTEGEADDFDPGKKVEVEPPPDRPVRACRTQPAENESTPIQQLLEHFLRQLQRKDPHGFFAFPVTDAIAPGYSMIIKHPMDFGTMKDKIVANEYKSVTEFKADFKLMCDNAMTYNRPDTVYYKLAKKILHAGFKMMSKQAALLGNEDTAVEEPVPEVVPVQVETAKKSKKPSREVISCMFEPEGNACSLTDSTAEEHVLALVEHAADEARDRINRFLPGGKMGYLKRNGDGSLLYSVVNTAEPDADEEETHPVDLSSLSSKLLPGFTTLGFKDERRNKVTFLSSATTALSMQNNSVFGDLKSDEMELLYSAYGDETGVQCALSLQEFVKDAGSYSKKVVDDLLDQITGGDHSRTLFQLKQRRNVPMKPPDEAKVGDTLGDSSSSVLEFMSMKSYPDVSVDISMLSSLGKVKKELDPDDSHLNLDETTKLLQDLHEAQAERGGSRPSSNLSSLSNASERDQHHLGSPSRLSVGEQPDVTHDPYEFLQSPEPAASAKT
Protocol: (§2) In additional experiments, cells were washed with PBS, before being lysed in RIPA buffer supplemented with 1×HALT™ protease inhibitor cocktail (Thermo Scientific) for 10 min on ice, followed by low-amplitude sonication for 10 seconds at 4° C. […] In soluble material was removed by centrifugation at 20,000×g for 20 min before protein content was quantified by BCA assay (Pierce). […] Blots were imaged using fluorescence-labeled secondary antibodies (LI-COR) on the OdysseyCLxImager (LI-COR).

BRD9 [3] = molecular target: T2, BRD9; assay: BRD9 immunoblot in MM1S CRBN knockout cells; conditions: MM.1S CRBN knockout cell line, 4 hour treatment, indicated doses
Protocol: as §2

TAF1(2) = molecular target: T3, TAF1(2) (Homo sapiens, UniProt P21675); assay: BromoScan single-point screen; assay type: binding; conditions: percent of protein captured on solid support vs control
T3 construct: utilizing DNA-tagged bromodomain and immobilized ligand attached to solid support
T3 sequence (P21675 1519-1628 limits assumed): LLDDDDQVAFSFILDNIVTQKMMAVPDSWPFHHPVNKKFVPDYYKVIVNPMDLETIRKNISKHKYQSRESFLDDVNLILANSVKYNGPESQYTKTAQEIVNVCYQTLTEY
Text: (§1) The BromoScan is an assay that measures the engagement of compounds with bromodomain proteins by utilizing DNA-tagged bromodomain and immobilized ligand attached to solid support. In the control test, DNA-tagged bromodomain binds to the ligand and the bromodomain is captured on the solid support. Compounds that compete for the bromodomain binding location on the ligand will prevent the bromodomain from binding, resulting in less protein captured on the solid support.

BRD1 = molecular target: T4, BRD1 (Homo sapiens, UniProt O95696); assay: BromoScan single-point screen; assay type: binding; conditions: percent of protein captured on solid support vs control
T4 construct: utilizing DNA-tagged bromodomain and immobilized ligand attached to solid support
T4 sequence (O95696 562-666 limits assumed): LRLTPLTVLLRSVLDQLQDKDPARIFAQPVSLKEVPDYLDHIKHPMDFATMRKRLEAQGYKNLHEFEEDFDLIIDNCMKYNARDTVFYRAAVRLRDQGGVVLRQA
Text: as §1

ATAD2B = molecular target: T5, ATAD2B (Homo sapiens, UniProt Q9ULI0); assay: BromoScan single-point screen; assay type: binding; conditions: percent of protein captured on solid support vs control
T5 construct: utilizing DNA-tagged bromodomain and immobilized ligand attached to solid support
T5 sequence (Q9ULI0 951-1066 limits assumed): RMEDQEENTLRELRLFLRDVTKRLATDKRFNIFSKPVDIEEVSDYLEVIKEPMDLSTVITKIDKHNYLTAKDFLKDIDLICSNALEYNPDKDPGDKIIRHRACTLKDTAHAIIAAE
Text: as §1

BRD3(2) = molecular target: T6, BRD3(2) (Homo sapiens, UniProt Q15059); assay: BromoScan single-point screen; assay type: binding; conditions: percent of protein captured on solid support vs control
T6 construct: utilizing DNA-tagged bromodomain and immobilized ligand attached to solid support
T6 sequence (Q15059 306-415 limits assumed): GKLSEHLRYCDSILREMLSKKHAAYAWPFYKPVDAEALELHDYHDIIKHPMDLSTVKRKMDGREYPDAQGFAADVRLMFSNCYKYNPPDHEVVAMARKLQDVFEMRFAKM
Text: as §1

PCAF = molecular target: T7, PCAF (Homo sapiens, UniProt Q92831); assay: BromoScan single-point screen; assay type: binding; conditions: percent of protein captured on solid support vs control
T7 construct: utilizing DNA-tagged bromodomain and immobilized ligand attached to solid support
T7 sequence (Q92831 723-827 limits assumed): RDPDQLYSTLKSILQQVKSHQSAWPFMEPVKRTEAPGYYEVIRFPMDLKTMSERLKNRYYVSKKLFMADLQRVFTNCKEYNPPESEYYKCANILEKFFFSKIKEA
Text: as §1

BAZ^2A = molecular target: T8, BAZ^2A (Homo sapiens, UniProt Q9UIF9); assay: BromoScan single-point screen; assay type: binding; conditions: percent of protein captured on solid support vs control
T8 construct: utilizing DNA-tagged bromodomain and immobilized ligand attached to solid support
T8 sequence (Q9UIF9 1793-1897 limits assumed): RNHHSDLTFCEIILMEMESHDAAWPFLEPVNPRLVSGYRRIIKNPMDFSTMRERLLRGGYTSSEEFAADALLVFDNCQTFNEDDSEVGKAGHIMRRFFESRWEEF
Text: as §1

BRD2(1) = molecular target: T9, BRD2(1) (Homo sapiens, UniProt P25440); assay: BromoScan single-point screen; assay type: binding; conditions: percent of protein captured on solid support vs control
T9 construct: utilizing DNA-tagged bromodomain and immobilized ligand attached to solid support
T9 sequence (P25440 74-180 limits assumed): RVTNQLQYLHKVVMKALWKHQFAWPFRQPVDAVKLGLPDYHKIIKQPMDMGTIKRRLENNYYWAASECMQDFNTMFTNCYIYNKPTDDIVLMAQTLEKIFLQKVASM
Text: as §1

ATAD2A = molecular target: T10, ATAD2A (Homo sapiens, UniProt Q6PL18); assay: BromoScan single-point screen; assay type: binding; conditions: percent of protein captured on solid support vs control
T10 construct: utilizing DNA-tagged bromodomain and immobilized ligand attached to solid support
T10 sequence (Q6PL18 980-1092 limits assumed): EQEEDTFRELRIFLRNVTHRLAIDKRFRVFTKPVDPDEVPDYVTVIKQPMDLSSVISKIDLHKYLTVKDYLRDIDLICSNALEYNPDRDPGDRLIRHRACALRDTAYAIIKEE
Text: as §1

BRDT(1) = molecular target: T11, BRDT(1) (Homo sapiens, UniProt Q58F21); assay: BromoScan single-point screen; assay type: binding; conditions: percent of protein captured on solid support vs control
T11 construct: utilizing DNA-tagged bromodomain and immobilized ligand attached to solid support
Text: as §1

CREBBP = molecular target: T12, CREBBP (Homo sapiens, UniProt Q92793); assay: BromoScan single-point screen; assay type: binding; conditions: percent of protein captured on solid support vs control
T12 construct: utilizing DNA-tagged bromodomain and immobilized ligand attached to solid support
T12 sequence (Q92793 1085-1192 limits assumed): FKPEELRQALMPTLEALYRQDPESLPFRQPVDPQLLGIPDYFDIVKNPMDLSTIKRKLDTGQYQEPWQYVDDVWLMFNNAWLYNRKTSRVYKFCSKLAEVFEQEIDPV
Text: as §1

CECR2 = molecular target: T13, CECR2 (Homo sapiens, UniProt Q9BXF3); assay: BromoScan single-point screen; assay type: binding; conditions: percent of protein captured on solid support vs control
T13 construct: utilizing DNA-tagged bromodomain and immobilized ligand attached to solid support
T13 sequence (Q9BXF3 434-538 limits assumed): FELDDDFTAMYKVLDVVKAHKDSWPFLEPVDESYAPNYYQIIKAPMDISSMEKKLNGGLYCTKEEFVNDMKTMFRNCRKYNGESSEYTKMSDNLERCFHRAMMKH
Text: as §1

EP300 = molecular target: T14, EP300 (Homo sapiens, UniProt Q09472); assay: BromoScan single-point screen; assay type: binding; conditions: percent of protein captured on solid support vs control
T14 construct: utilizing DNA-tagged bromodomain and immobilized ligand attached to solid support
T14 sequence (Q09472 1049-1156 limits assumed): as the sequence (Q92793 1085-1192 limits assumed) above, with N47S, V73I, F93Y, A98S counted along it
Text: as §1

BRDT(2) = molecular target: T15, BRDT(2) (Homo sapiens, UniProt Q58F21); assay: BromoScan single-point screen; assay type: binding; conditions: percent of protein captured on solid support vs control
T15 construct: utilizing DNA-tagged bromodomain and immobilized ligand attached to solid support
Text: as §1

TAF1L(2) = molecular target: T16, TAF1L(2) (Homo sapiens, UniProt Q8IZX4); assay: BromoScan single-point screen; assay type: binding; conditions: percent of protein captured on solid support vs control
T16 construct: utilizing DNA-tagged bromodomain and immobilized ligand attached to solid support
T16 sequence (Q8IZX4 1517-1626 limits assumed): as the sequence (P21675 1519-1628 limits assumed) above, with V46M, M51V, V102I, L107I counted along it
Text: as §1

BRD2(2) = molecular target: T17, BRD2(2) (Homo sapiens, UniProt P25440); assay: BromoScan single-point screen; assay type: binding; conditions: percent of protein captured on solid support vs control
T17 construct: utilizing DNA-tagged bromodomain and immobilized ligand attached to solid support
T17 sequence (P25440 344-453 limits assumed): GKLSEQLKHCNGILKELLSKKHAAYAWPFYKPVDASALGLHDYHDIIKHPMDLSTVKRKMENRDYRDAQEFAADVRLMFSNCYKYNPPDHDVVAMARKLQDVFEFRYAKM
Text: as §1

BRD4(1) = BRD4(1) (Homo sapiens, UniProt O60885); assay: BromoScan single-point screen; assay type: binding; parameters: utilizing DNA-tagged bromodomain and immobilized ligand attached to solid support; conditions: percent of protein captured on solid support vs control
Text: as §1

BRD7 = BRD7 (Homo sapiens, UniProt Q9NPI1); assay: BRD7 immunoblot in MOLM-13; conditions: MOLM-13, 4 hour treatment
Sequence of BRD7 (Q9NPI1 whole entry): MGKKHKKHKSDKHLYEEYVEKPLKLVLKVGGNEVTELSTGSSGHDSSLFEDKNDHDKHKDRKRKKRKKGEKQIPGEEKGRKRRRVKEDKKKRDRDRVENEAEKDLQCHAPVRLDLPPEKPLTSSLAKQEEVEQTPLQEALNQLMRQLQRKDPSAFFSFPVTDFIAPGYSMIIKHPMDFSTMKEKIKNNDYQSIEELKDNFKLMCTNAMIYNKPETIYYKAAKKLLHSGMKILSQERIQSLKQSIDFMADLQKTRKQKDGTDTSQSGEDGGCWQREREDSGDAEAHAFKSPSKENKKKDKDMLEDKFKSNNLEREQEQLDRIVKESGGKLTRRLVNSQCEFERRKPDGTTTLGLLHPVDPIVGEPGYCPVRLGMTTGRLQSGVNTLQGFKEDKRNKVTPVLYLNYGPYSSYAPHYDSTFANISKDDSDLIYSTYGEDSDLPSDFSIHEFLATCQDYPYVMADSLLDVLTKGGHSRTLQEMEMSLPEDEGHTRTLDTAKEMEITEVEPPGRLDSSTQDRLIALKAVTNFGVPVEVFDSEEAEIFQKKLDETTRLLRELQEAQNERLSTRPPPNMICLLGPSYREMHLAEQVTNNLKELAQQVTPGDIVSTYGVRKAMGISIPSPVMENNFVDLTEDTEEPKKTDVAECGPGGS
Protocol: as §2

[4] = MMIS cells, 4 hours pretreatment, then 100 nM

SMILES: COc1cc(-c2cn(C)c(=O)c3cc(C(=N)NC4CCS(=O)(=O)CC4)sc23)ccc1OCC(=O)NCCCCCCCCNc1cccc2c1CN(C1CCC(=O)NC1=O)C2=O (centres unmarked) [Compound I-17]
- IC50 (BRD9 [1]): 12.3 nM
- half-maximal anti-proliferative concentration (MOLM-13 cell line): low nanomolar
- maximal efficacy on cell proliferation (MOLM-13 cell line): significantly exceeded that of the more selective I-25
- BRD9 degradation after pretreatment with excess I-BRD9 (BRD9 [2]; [4]): prevented degradation
- BRD9 degradation after pretreatment with excess lenalidomide (BRD9 [2]; [4]): prevented degradation
- BRD9 degradation with co-treatment with carfilzomib (BRD9 [2]; [4]): Degradation was abolished
- BRD9 levels after pretreatment with neddylation inhibitor (MLN-4924) (BRD9 [2]; [4]): rescued BRD9 levels
- BRD9 loss (immunoblot) (BRD9 [2]; wild type MM.1S cells, 4 hour treatment, indicated doses): marked dose-dependent BRD9 loss
- BRD9 degradation (immunoblot) (BRD9 [3]): little to no BRD9 degradation
- % Ctrl @ 1 μM (TAF1(2)): 19 % Ctrl
- % Ctrl @ 1 μM (BRD1): 42 % Ctrl
- % Ctrl @ 1 μM (ATAD2B): 60 % Ctrl
- % Ctrl @ 1 μM (BRD3(2)): 19 % Ctrl
- % Ctrl @ 1 μM (PCAF): 55 % Ctrl
- % Ctrl @ 1 μM (BAZ^2A): 42 % Ctrl
- % Ctrl @ 1 μM (BRD2(1)): 4 % Ctrl
- % Ctrl @ 1 μM (ATAD2A): 100 % Ctrl
- % Ctrl @ 1 μM (BRDT(1)): 18 % Ctrl
- % Ctrl @ 1 μM (CREBBP): 10 % Ctrl
- % Ctrl @ 1 μM (CECR2): 0.15 % Ctrl
- % Ctrl @ 1 μM (EP300): 37 % Ctrl
- % Ctrl @ 1 μM (BRDT(2)): 57 % Ctrl
- % Ctrl @ 1 μM (TAF1L(2)): 54 % Ctrl
- % Ctrl @ 1 μM (BRD2(2)): 43 % Ctrl
- % Ctrl @ 1 μM (BRD4(1)): 1.8 % Ctrl
- BRD7 degradation (immunoblot) (BRD7): degradation was observed
